Data from patent US20020103219A1, “Stable viscous liquid formulations of amlexanox for the prevention and treatment of mucosal diseases and disorders” (priority 2000, published 2002).
Read-outs that look alike come from different tables or passages of the source.

Legend:
[1] = tested on: leukotriene D4 (LTD4) generation; conditions: mechanism of action; cited from earlier work
[2] = stability of amlexanox in aqueous solution; format: physicochemical; conditions: under certain conditions, solution pH greater than about 8.0
Excerpt: (§1) The molecule contains a free carboxylate group, and the water solubility of amlexanox can be increased by raising the pH of the dissolution solution. However, caution is necessary using this approach as degradation of amlexanox may take place at high pH. […] Thus the formulation of a viscous, mucoadhesive solution of amlexanox which is also stable represented a major challenge.

[3] = tested on: 2,4-dinitro-1 -fluorobenzene-induced contact sensitivity; conditions: intravenous, cited from earlier work
tuberculin reaction = conditions: intravenous, cited from earlier work
Arthus reaction = conditions: cited from earlier work
[4] = tested on: acetylcholine-induced bronchoconstriction; conditions: text b108; cited from earlier work
[5] = tested on: histamine-induced bronchoconstriction; conditions: cited from earlier work
leukotrienes = conditions: in vitro; cited from earlier work
[6] = tested on: cyclic nucleotide phosphodiesterase; conditions: cited from earlier work
mast cells = conditions: cited from earlier work
[7] = tested on: passive cutaneous anaphylaxis mediated by IgE; conditions: rat, cited from earlier work
[8] = tested on: leukotriene D4-induced bronchoconstriction; conditions: guinea pigs, intravenous doses of 5 and 20 mg/kg; cited from earlier work
bronchoconstriction = conditions: guinea pigs passively sensitized with rabbit IgG, intravenously; cited from earlier work
[9] = tested on: IgG1-mediated bronchoconstriction; conditions: actively sensitized guinea pigs, cited from earlier work
[10] = water solubility of amlexanox; format: physicochemical
Excerpt: as §1

airway smooth muscle = conditions: mechanism of action; cited from earlier work
[11] = tested on: IgE-mediated bronchoconstriction; conditions: rats, cited from earlier work
cyclo-oxygenase products = conditions: whole tissue studies; cited from earlier work
[12] = tested on: IgE-mediated constriction; conditions: actively sensitized guinea pigs, cited from earlier work
allergic reactions = conditions: variety of in vivo models; cited from earlier work
[13] = tested on: platelet activating factor-induced bronchoconstriction; conditions: guinea pigs, intravenous doses of 5 and 20 mg/kg; cited from earlier work
inflammation = conditions: in vivo; cited from earlier work

CC(C)c1ccc2oc3nc(N)c(C(=O)O)cc3c(=O)c2c1 [Amlexanox, 2-amino-7-(1 methylethyl)-5-oxo-5H[1]benzopyrano[2,3-b]pyridine-3-carboxylic acid]
leukotriene D4 (LTD4) generation [1]: Inhibition | degradation in aqueous solution [2]: degrade slowly | inhibition of contact sensitivity ([3]; 5 mg/kg): not | inhibition of contact sensitivity ([3]; 20 mg/kg): significant inhibition | inhibition of the tuberculin reaction (tuberculin reaction; 5 mg/kg): not | inhibition of the tuberculin reaction (tuberculin reaction; 20 mg/kg): significant inhibition | inhibition of the Arthus reaction (Arthus reaction; intravenous doses of 5 and 20 mg/kg given immediately after antigen challenge): moderate activity | inhibition of the Arthus reaction (Arthus reaction; oral doses of 50 and 10 mg/kg given 1 or 3 hours after antigen challenge): moderate activity | effect on acetylcholine-induced bronchoconstriction [4]: not active | bronchoconstriction induced by histamine ([5]; Table 1): Has no effect on bronchoconstriction induced by histamine or | effect on histamine-induced bronchoconstriction ([5]; text b108): slightly suppressed | formation of leukotrienes (leukotrienes): Inhibits formation of leukotrienes, in vitro | inhibition of cyclic nucleotide phosphodiesterase [6]: Potent inhibitor of cyclic nucleotide phosphodiesterase | release of inflammatory mediators from mast cells (mast cells; antigen-antibody induced release, ionophore induced release): Potent inhibitor of the release of inflammatory mediators from mast cells | immunologically-stimulated release of histamine from mast cells (mast cells; mechanism of action, in vivo and in vitro studies): Inhibition | ED50, inhibition of passive cutaneous anaphylaxis ([7]; intravenous): 0.032 mg/kg | ED50, inhibition of passive cutaneous anaphylaxis ([7]; oral): 0.73 mg/kg | suppression of bronchoconstriction induced by leukotriene D4 [8]: dose-related suppression | ED50, inhibition of bronchoconstriction (bronchoconstriction): 9 mg/kg | ED50, IgG1-mediated bronchoconstriction ([9]; intravenous): 8.2 mg/kg | ED50, IgG1-mediated bronchoconstriction ([9]; oral): 160 mg/kg | water solubility [10]: poorly water soluble | contractile response of airway smooth muscle to LTD4 (airway smooth muscle): Antagonism | suppression of IgE-mediated bronchoconstriction ([11]; intravenous dose of 1 mg/kg): significantly suppressed | suppression of IgE-mediated bronchoconstriction ([11]; oral dose of 10 mg/kg): significantly suppressed | generation of cyclo-oxygenase products (cyclo-oxygenase products): Does not inhibit generation of cyclo-oxygenase products in whole | inhibition of IgE-mediated constriction ([12]; 20 mg/kg, another study): significant inhibition | ED50, inhibition of IgE-mediated constriction ([12]; one study): 14.5 mg/kg | anti-allergic activity (allergic reactions): Potent ant-allergic agent demonstrated in a variety of in vivo models | suppression of bronchoconstriction induced by platelet activating factor [13]: dose-related suppression | anti-inflammatory activity (inflammation): Weak anti-inflammatory activity in vivo
